Data as given in publication PMC12656546, “Enterohepatic Recirculation-Mediated Reabsorption of Aristolochic Acid I: Revealed by Toxicokinetics and Metabolite Identification in Rats” (Toxics, 2025).
Values joined by “and” are separate entries in the source; they are usually repeats but may differ in a detail not shown here. Equal entries are not always repeated. Where two headings read alike, the source gives them in different places.

Assay: Toxicokinetic study of AAI after single oral administration (plasma, UPLC-QQQ-MS/MS, NCA)
Assay type: in vivo, F344 rats
Conditions: for tmax: read-out: tmax
Method: For toxicokinetic study, forty-eight […] F344 rats (specific pathogen-free grade) were enrolled in the study, with equal numbers of males and females. All rats were purchased from Charles River Laboratory (Raleigh, NC, USA). All rats were confirmed to be healthy based on a series of physical health examinations. Rats were acclimated for 5 days at a temperature of 20–26 °C, humidity of 40–70% and a 12 h light/dark circle. The rats were randomly divided into four groups (n = 12 per group), with equal numbers of males and females in each group. The allocation was performed separately for each sex (female and male) based on body weight using a stratified randomization method. During the experiment, rats were fasted and had access to water ad libitum. To minimize confounding factors, treatments and measurements were randomized within each session. Cages from different groups were evenly distributed across racks in the same room to reduce bias from light and temperature. This study was approved by the Institutional Animal Care and Use Committee (IACUC) of the National Drug Safety Evaluation Center (Approval No. IACUC-2024-K011, 20 September 2024).
During the experiment, each rat received a single oral administration via gastric gavage. Rats in the control group were administered with 0.5% sodium carboxymethyl cellulose (CMC-Na) suspension. For the treatment groups, rats were administered with gavage solution containing 10, 30 and 100 mg/kg of AAI. The gavage solution was prepared by uniformly dispersing the reference standard of AAI in the 0.5% CMC-Na solution. After oral administration, blood samples were collected from the postorbital vein plex of rats and immediately placed in EDTA tubes. To capture potential reabsorption which might occur long after AAI administration, 15 blood sampling time points were established for each dose group. A sparse sampling approach was employed to avoid excessive blood loss in each rat. For each dosage, 12 rats were subdivided into two groups. For the first group, blood samples were collected from 6 rats at 10, 30, 60, 90, 120, 240, 420, and 600 min after AAI administration; for the second group, blood samples were collected from these 6 rats at 12, 14, 16, 18, 20, 22, and 24 h after AAI administration. Therefore, the experimental design ensured that six biological replicates were obtained for each sampling time point, enabling robust toxicokinetic analysis.
Rat plasma samples were prepared as follows: Blood was centrifuged at 13,200 rpm for 10 min. Then, 25 μL of retrieved plasma was transferred to 2 mL centrifuge tubes, followed by the addition of 75 μL of methanol/acetonitrile solution (v/v, 1∶1) containing indomethacin as internal standard (IS). After vortexing for 2 min and centrifugation for 10 min at 13,200 rpm, the supernatant was used as study samples for quantitative analysis. Quality control samples (QCs) and calibration standards were prepared by spiking blank plasma with different concentrations of AAI standard solution. The QCs and calibration standards were processed using identical procedures as the study samples.
A method of ultra-performance liquid chromatography coupled with triple quadrupole tandem mass spectrometry (UPLC-QQQ-MS/MS) was developed to achieve the quantitation of AAI in rat plasma. The LC-MS/MS analysis was performed using an Acquity UPLC I-Class system coupled with an Xevo TQ XS spectrometer (Waters, Milford, MA, USA). An Acquity UPLC BEH C18 column (2.1 mm × 50 mm, 1.7 μm, Waters, Milford, MA, USA) was employed for chromatographic separation. The mobile phases consisted of water containing 5 mmol/L ammonium formate/0.1% formic acid (A) and acetonitrile (B). The gradient elution was set as follows: 1–4 min, 10–90% B; 4–5 min, 90% B; 5–5.01 min, 90–10% B; 5.01–7 min, 10% B. The flow rate was set at 0.4 mL/min. The column temperature was maintained at 40 °C. A sample volume of 2 μL was injected for analysis. […]

[1] = 10 mg/kg single oral, rat plasma, mean ± SD
[2] = 30 mg/kg single oral, rat plasma, mean ± SD
[3] = 100 mg/kg single oral, rat plasma, mean ± SD
[4] = both sexes, F344, rat, plasma, po, 10 mg/kg, 10 mg/kg single oral, rat plasma, mean ± SD
[5] = both sexes, F344, rat, plasma, po, 30 mg/kg, 30 mg/kg single oral, rat plasma, mean ± SD
[6] = both sexes, F344, rat, plasma, po, 30 mg/kg, medium-dose (30 mg/kg), individual pooled profiles (animal pairs), Table S4
[7] = both sexes, F344, rat, plasma, po, 100 mg/kg, 100 mg/kg single oral, rat plasma, mean ± SD
[8] = high-dose (100 mg/kg), individual pooled profiles (animal pairs), Table S4, 100 mg/kg

Structure (SMILES): COc1cccc2c1cc([N+](=O)[O-])c1c(C(=O)O)cc3c(c12)OCO3 [AAI, Aristolochic acid I]
- CL/F [1]: 1.66 ± 0.37 L/h
- Vd [1]: 3.36 ± 1.97 L
- CL/F [2]: 1.22 ± 0.30 L/h
- Vd [2]: 4.67 ± 0.81 L
- CL/F [3]: 1.13 ± 0.59 L/h
- Vd [3]: 8.42 ± 7.24 L
- AUC(0-t) (F344, rat, plasma, po, 10 mg/kg, low-dose (10 mg/kg), individual pooled profiles (animal pairs), Table S4): 843 ng·h/mL
- Cmax (F344, rat, plasma, po, 10 mg/kg, low-dose (10 mg/kg), individual pooled profiles (animal pairs), Table S4, read-out: Cmax): 562 ng/mL
- AUC(0-t) [4]: 969 ± 140 ng·h/mL
- half-life [4]: 1.31 ± 0.51 h
- Cmax (both sexes, F344, rat, plasma, po, 10 mg/kg, 10 mg/kg single oral, rat plasma, mean ± SD, read-out: Cmax): 457 ± 129 ng/mL
- tmax [4]: 0.69 ± 0.6 h
- concentration at 14 h (both sexes, F344, rat, plasma, po, 10 mg/kg, low-dose (10 mg/kg oral), 14 h, individual rats M104,M105,M106,F104,F105,F106, below LLOQ set to zero): 0 ng/mL
- concentration at 16 h (both sexes, F344, rat, plasma, po, 10 mg/kg, low-dose (10 mg/kg oral), 16 h, individual rats M104,M105,M106,F104,F105,F106, below LLOQ set to zero): 0 ng/mL
- concentration at 18 h (both sexes, F344, rat, plasma, po, 10 mg/kg, low-dose (10 mg/kg oral), 18 h, individual rats M104,M105,M106,F104,F105,F106, below LLOQ set to zero): 0 ng/mL
- concentration at 20 h (both sexes, F344, rat, plasma, po, 10 mg/kg, low-dose (10 mg/kg oral), 20 h, individual rats M104,M105,M106,F104,F105,F106, below LLOQ set to zero): 0 ng/mL
- concentration at 22 h (both sexes, F344, rat, plasma, po, 10 mg/kg, low-dose (10 mg/kg oral), 22 h, individual rats M104,M105,M106,F104,F105,F106, below LLOQ set to zero): 0 ng/mL
- concentration at 24 h (both sexes, F344, rat, plasma, po, 10 mg/kg, low-dose (10 mg/kg oral), 24 h, individual rats M104,M105,M106,F104,F105,F106, below LLOQ set to zero): 0 ng/mL
- AUC(0-t) (both sexes, F344, rat, plasma, po, 10 mg/kg, low-dose (10 mg/kg), individual pooled profiles (animal pairs), Table S4): 825 ng·h/mL
- AUC(0-t) [5]: 3950 ± 543 ng·h/mL
- half-life [5]: 2.79 ± 0.74 h
- Cmax (both sexes, F344, rat, plasma, po, 30 mg/kg, 30 mg/kg single oral, rat plasma, mean ± SD, read-out: Cmax): 2450 ± 561 ng/mL
- tmax [5]: 0.58 ± 0.17 h
- concentration at 1.5 h (both sexes, F344, rat, plasma, po, 30 mg/kg, medium-dose (30 mg/kg oral), 1.5 h, individual rats M201,M202,M203,F201,F202,F203): 413 ng/mL
- AUC(0-t) [6]: 3450 ng·h/mL
- tmax [6]: 0.5 h
- AUC(0-t) [7]: 17100 ng·h/mL
- half-life [7]: 3.01 ± 0.45 h
- Cmax (both sexes, F344, rat, plasma, po, 100 mg/kg, 100 mg/kg single oral, rat plasma, mean ± SD, read-out: Cmax): 9110 ± 2180 ng/mL
- tmax [7]: 1.17 ± 0.37 h
- Cmax (both sexes, F344, rat, plasma, po, 100 mg/kg, high-dose (100 mg/kg), individual pooled profiles (animal pairs), Table S4, read-out: Cmax): 9010 ng/mL
- tmax (both sexes, F344, rat, plasma, po, 100 mg/kg, high-dose (100 mg/kg), individual pooled profiles (animal pairs), Table S4): 2 h
- secondary elevation of plasma AAI concentration, time post-administration (high- and medium-dose groups (100, 30 mg/kg oral)): 14 to 24 h
- AUC0→t [8]: 17484.11 ng·h/mL and 17260.39 ng·h/mL and 32135.80 ng·h/mL and 9262.46 ng·h/mL and 9698.81 ng·h/mL and 16821.21 ng·h/mL
- CL/F [8]: 0.76 L/h and 0.74 L/h and 0.40 L/h and 2.04 L/h and 1.79 L/h and 1.07 L/h
- Cmax [8]: 9980.23 ng/mL and 12351.60 ng/mL and 6490.96 ng/mL and 6245.89 ng/mL and 10563.14 ng/mL
- Vd [8]: 23.01 L and 3.33 L and 1.48 L and 11.28 L and 7.23 L and 4.20 L
- t1/2 [8]: 20.86 h and 3.11 h and 2.58 h and 3.83 h and 2.80 h and 2.72 h
